Source: patent US20230337674A1, “FUNGICIDAL COMPOSITIONS” (SYNGENTA CROP PROTECTION AG, priority 2020, published 2023)
Several values for one entry are separate records, joined by “and”; a condition that tells them apart may be missing. Equal entries are not always repeated. Where two headings read alike, the source gives them in different places.

Legend:
Septoria tritici = Septoria tritici growth inhibition in nutrient broth (microtiter plate); format: cell-based; details: Zymoseptoria tritici, read-out: Observed Activity (%)
Description: Septoria tritici (Leaf Blotch):
(§1) Conidia of the fungus from cryogenic storage were directly mixed into nutrient broth (PDB potato dextrose broth). A DMSO solution of the test compounds was placed into a microtiter plate (96-well format) and the nutrient broth containing the fungal spores was added to it. The test plates were incubated at 24° C. and the inhibition of growth was determined photometrically after 72 hrs.

Phakopsora pachyrhizi = Phakopsora pachyrhizi on leaf disks from treated whole soybean plants; format: in vivo; details: evaluation 11 to 14 days after inoculation; for inhibition at 0.25 g/ha / inhibition at 0.5 g/ha / inhibition at 1 g/ha / inhibition at 2 g/ha: Phakopsora pachyrhizi, foliar
Description: Phakopsora pachyrhizi (Soybean Rust):
Whole soybean plants are treated with the recited active ingredients 4 weeks after planting. 1 day after spraying leaf disks are cut from the first trifoliate leaf. Five repetitions at each rate are conducted. The leaf disks are inoculated with Phakopsora pachyrhizi (Asian soybean rust) one day after treatment. Evaluation of the leaf disks is conducted 11 to 14 days after inoculation and the activity is derived from the relation of the treated vs untreated, infested check. The rates of the active ingredients used are given in Table as g active ingredient (a.i.)/ha.

Corynespora cassiicola = Corynespora cassiicola growth inhibition in nutrient broth (microtiter plate); format: cell-based; details: read-out: Observed Activity (%)
Description: Corynespora cassiicola (Target Spot of Soybean, Target Leaf Spot of Tomato):
as §1, with “3-4 days at 620 nm.” for “72 hrs.”

[1] = single active, 0.5 g/ha, read-out: Observed Activity (%)
[2] = single active, read-out: Observed Activity (%)

CNC(=O)C(F)(F)c1ccc(-c2noc(C(F)(F)F)n2)cc1 [Compound A-1.1, 2,2-difluoro-N-methyl-2-[4-[5-(trifluoromethyl)-1,2,4-oxadiazol-3-yl]phenyl]acetamide]
inhibition at 5 ppm (Septoria tritici; single active, 72 hrs, 24° C.): 20% | inhibition at 10 ppm (Septoria tritici; single active, 10 ppm, 72 hrs, 24° C.): 20% | inhibition at 20 ppm (Septoria tritici; single active, 20 ppm, 72 hrs, 24° C.): 50% | inhibition at 0.25 g/ha (Phakopsora pachyrhizi; single active, 0.25 g/ha, read-out: Observed Activity (%)): 0% | inhibition at 0.5 g/ha (Phakopsora pachyrhizi; [1]): 3% | inhibition at 1 g/ha (Phakopsora pachyrhizi; [2]): 54%

CNC(=S)c1ccc(-c2noc(C(F)(F)F)n2)cc1 [Compound A-1.2, N-methyl-4-[5-(trifluoromethyl)-1,2,4-oxadiazol-3-yl]benzenecarbothioamide]
inhibition at 5 ppm (Corynespora cassiicola; single active, 5 ppm, 3-4 days, 24° C.): 0% | inhibition at 10 ppm (Corynespora cassiicola; single active, 10 ppm, 3-4 days, 24° C.): 0% | inhibition at 20 ppm (Corynespora cassiicola; single active, 20 ppm, 3-4 days, 24° C.): 0% | inhibition at 5 ppm (Septoria tritici; single active, 72 hrs, 24° C.): 50% | inhibition at 0.5 g/ha (Phakopsora pachyrhizi; [1]): 0% | inhibition at 1 g/ha (Phakopsora pachyrhizi; [2]): 88% | inhibition at 2 g/ha (Phakopsora pachyrhizi; [2]): 95%

O=C(Nc1ccccc1F)c1ccc(-c2noc(C(F)(F)F)n2)cc1 [Compound A-1.3, N-(2-fluorophenyl)-4-[5-(trifluoromethyl)-1,2,4-oxadiazol-3-yl]benzamide]
inhibition at 0.5 g/ha (Phakopsora pachyrhizi; [1]): 0% | inhibition at 1 g/ha (Phakopsora pachyrhizi; [2]): 29% | inhibition at 2 g/ha (Phakopsora pachyrhizi; [2]): 78%

C[C@@H]1CC(C)(C)c2cccc(NC(=O)c3cn(C)nc3C(F)F)c21 [Inpyrfluxam, 3-(difluoromethyl)-1-methyl-N-[(3R)-1,1,3-trimethylindan-4-yl]pyrazole-4-carboxamide, reference compound]
inhibition at 0.01 ppm (Corynespora cassiicola): 0% | inhibition at 0.02 ppm (Corynespora cassiicola): 0% | inhibition at 0.02 ppm (Septoria tritici; 72 h): 0% | inhibition at 0.04 ppm (Septoria tritici; 72 h): 20% | inhibition at 0.25 g/ha (Phakopsora pachyrhizi; read-out: Observed Activity (%), single active, 0.25 g/ha): 50% | Observed Activity (%) (Phakopsora pachyrhizi; single active, 0.5 g/ha): 46% and 82%
